Laboratory results reported in patent US6635635B2, “Benzothiadiazine compounds” (Les Laboratoires Servier, priority 2000, dated 2003).

Legend:
[1] = system: AMPA receptor; assay: Study of excitatory fluxes induced by AMPA in Xenopus oocytes (2-electrode voltage-clamp); format: cell-based; details: Xenopus oocytes injected with poly(A+) mRNA from rat cerebral cortex; AMPA 10 μM; 20-24° C.
Description: Study of Excitatory Fluxes Induced by AMPA in Xenopus oocytes
mRNAs are prepared from cerebral cortex of male Wistar rat by the guanidium thiocyanate/phenol/chloroform method. The poly (A^+) mRNAs are isolated by chromatography on oligo-dT cellulose and injected with 50 ng per oocyte. The oocytes are left for 2 to 3 days' incubation at 18° C. to enable expression of the receptors and are then stored at 8-10° C.
Electrophysiological recording is carried out in a Plexiglass® chamber at 20-24° C. in an OR2 medium (J. Exp. Zool., 1973, 184, 321-334) by the 2-electrode “voltage-clamp” method, with a 3rd electrode being placed in the bath to serve as reference.
All the compounds are administered via the incubation medium and the electric current is measured at the end of the period of administration. AMPA is used in a concentration of 10 μM. For each compound studied, there is determined the concentration that doubles (EC2X) or quintuples (EC5X) the intensity of the flux induced by AMPA alone (5 to 50 nA).

Structure (SMILES)	melting point	EC2X (concentration that doubles the intensity of the flux induced by AMPA alone) [1]
O=C(Cc1ccccc1)Oc1ccc2c(c1)S(=O)(=O)NC1CCCN21 (stereo not drawn)	169 to 171 °C	
Cl.O=C(Oc1ccc2c(c1)S(=O)(=O)NC1CCCN21)c1ccncc1 (stereo not drawn)	243 to 247 °C	
Cl.O=C(Oc1ccc2c(c1)S(=O)(=O)NC1CCCN21)c1ccccn1 (stereo not drawn)	227 to 230 °C	
CC(=O)Oc1ccc2c(c1)S(=O)(=O)NC1CCCN21 (single isomer, unassigned) [Ex. 8, 5,5-Dioxo-2,3,3a,4-tetrahydro-1H-pyrrolo[2,1-c][1,2,4]benzothiadiazin-7-yl acetate, α isomer dextro]		20 µM
CC(=O)Oc1ccc2c(c1)S(=O)(=O)NC1CCCN21 (single isomer, unassigned) [Ex. 9, 5,5-Dioxo-2,3,3a,4-tetrahydro-1H-pyrrolo[2,1-c][1,2,4]benzothiadiazin-7-yl acetate, β isomer levo]		296 µM
O=S1(=O)NC2CCCN2c2ccc(O)cc21 (stereo not drawn) [Ex. 1, 5,5-Dioxo-2,3,3a,4-tetrahydro-1H-pyrrolo[2,1-c][1,2,4]benzothiadiazin-7-ol]		12 µM
O=S1(=O)NC2CCCN2c2cc(F)c(O)cc21 (stereo not drawn) [Ex. 4, 5,5-Dioxo-8-fluoro-2,3,3a,4-tetrahydro-1H-pyrrolo[2,1-c][1,2,4]-benzothiadiazin-7-ol]		35 µM
CC(=O)Oc1ccc2c(c1)S(=O)(=O)NC1CCCN21 (stereo not drawn) [Ex. 7, 5,5-Dioxo-2,3,3a,4-tetrahydro-1H-pyrrolo[2,1c][1,2,4]benzothiadiazin-7-yl acetate]		34 µM
CC(C)(C)C(=O)Oc1ccc2c(c1)S(=O)(=O)NC1CCCN21 (stereo not drawn) [Ex. 10, 5,5-Dioxo-2,3,3a,4-tetrahydro-1H-pyrrolo[2,1-c][1,2,4]benzothiadiazin-7-yl pivalate]		14 µM
O=C(Oc1ccc2c(c1)S(=O)(=O)NC1CCCN21)c1ccccc1 (stereo not drawn) [Ex. 11, 5,5-Dioxo-2,3,3a,4-tetrahydro-1H-pyrrolo[2,1-c][1,2,4]benzothiadiazin-7-yl benzoate]		5 µM
Cc1ccc(C(=O)Oc2ccc3c(c2)S(=O)(=O)NC2CCCN32)cc1 (stereo not drawn) [Ex. 28, 5,5-Dioxo-2,3,3a,4-tetrahydro-1H-pyrrolo[2,1-c][1,2,4]-benzothiadiazin-7-yl 4-methylbenzoate]	198 to 200 °C	3.6 µM
O=C(Oc1ccc2c(c1)S(=O)(=O)NC1CCCN21)c1cccs1 (stereo not drawn) [Ex. 34, 5,5-Dioxo-2,3,3a,4-tetrahydro-1H-pyrrolo[2,1-c][1,2,4]-benzothiadiazin-7-yl 2-thiophenecarboxylate]	212 to 214 °C	1.3 µM
O=C(Oc1ccc2c(c1)S(=O)(=O)NC1CCCN21)c1ccco1 (stereo not drawn) [Ex. 36, 5,5-Dioxo-2,3,3a,4-tetrahydro-1H-pyrrolo[2,1-c][1,2,4]-benzothiadiazin-7-yl 2-furancarboxylate]	205 to 208 °C	2.0 µM
O=C(Oc1ccc2c(c1)S(=O)(=O)NC1CCCN21)c1cccnc1 (stereo not drawn) [Ex. 37, 5,5-Dioxo-2,3,3a,4-tetrahydro-1H-pyrrolo[2,1-c][1,2,4]-benzothiadiazin-7-yl nicotinate]	227 to 230 °C	4.0 µM
O=C(Oc1ccc2c(c1)S(=O)(=O)NC1CCCN21)C1CCCCC1 (stereo not drawn) [Example 14, 5,5-Dioxo-2,3,3a,4-tetrahydro-1H-pyrrolo[2,1-c][1,2,4]-benzothiadiazin-7-yl cyclohexanecarboxylate]	157 °C	
O=C(Oc1ccc2c(c1)S(=O)(=O)NC1CCCN21)C1CCCC1 (stereo not drawn) [Example 16, 5,5-Dioxo-2,3,3a,4-tetrahydro-1H-pyrrolo[2,1-c][1,2,4]-benzothiadiazin-7-yl cyclopentanecarboxylate]	148 to 150 °C	
O=C(Oc1ccc2c(c1)S(=O)(=O)NC1CCCN21)C1CCC1 (stereo not drawn) [Example 17, 5,5-Dioxo-2,3,3a,4-tetrahydro-1H-pyrrolo[2,1-c][1,2,4]-benzothiadiazin-7-yl cyclobutanecarboxylate]	166 to 170 °C	
O=C(Oc1ccc2c(c1)S(=O)(=O)NC1CCCN21)C1CC1 (stereo not drawn) [Example 18, 5,5-Dioxo-2,3,3a,4-tetrahydro-1H-pyrrolo[2,1-c][1,2,4]-benzothiadiazin-7-yl cyclopropanecarboxylate]	169 to 171 °C	
O=C(Oc1ccc2c(c1)S(=O)(=O)NC1CCCN21)c1ccc2ccccc2c1 (stereo not drawn) [Example 20, 5,5-Dioxo-2,3,3a,4-tetrahydro-1H-pyrrolo[2,1-c][1,2,4]-benzothiadiazin-7-yl 2-naphthalenecarboxylate]	207 to 210 °C	
O=C(Oc1ccc2c(c1)S(=O)(=O)NC1CCCN21)c1ccc(-c2ccccc2)cc1 (stereo not drawn) [Example 21, 5,5-Dioxo-2,3,3a,4-tetrahydro-1H-pyrrolo[2,1-c][1,2,4]-benzothiadiazin-7-yl [1,1′-biphenyl]-4-carboxylate]	249 to 253 °C	
O=C(C=Cc1ccccc1)Oc1ccc2c(c1)S(=O)(=O)NC1CCCN21 (stereo not drawn) [Example 23, 5,5-Dioxo-2,3,3a,4-tetrahydro-1H-pyrrolo[2,1-c][1,2,4]-benzothiadiazin-7-yl 3-phenyl-2-propenoate]	193 to 198 °C	
COc1ccc(C(=O)Oc2ccc3c(c2)S(=O)(=O)NC2CCCN32)cc1 (stereo not drawn) [Example 24, 5,5-Dioxo-2,3,3a,4-tetrahydro-1H-pyrrolo[2,1-c][1,2,4]-benzothiadiazin-7-yl 4-methoxybenzoate]	216 to 221 °C	
O=C(Oc1ccc2c(c1)S(=O)(=O)NC1CCCN21)c1cccc(Cl)c1 (stereo not drawn) [Example 26, 5,5-Dioxo-2,3,3a,4-tetrahydro-1H-pyrrolo[2,1-c][1,2,4]-benzothiadiazin-7-yl 3-chlorobenzoate]	243 to 247 °C	
N#Cc1ccc(C(=O)Oc2ccc3c(c2)S(=O)(=O)NC2CCCN32)cc1 (stereo not drawn) [Example 27, 5,5-Dioxo-2,3,3a,4-tetrahydro-1H-pyrrolo[2,1-c][1,2,4]-benzothiadiazin-7-yl 4-cyanobenzoate]	260 to 264 °C	
Cc1cccc(C(=O)Oc2ccc3c(c2)S(=O)(=O)NC2CCCN32)c1 (stereo not drawn) [Example 29, 5,5-Dioxo-2,3,3a,4-tetrahydro-1H-pyrrolo[2,1-c][1,2,4]-benzothiadiazin-7-yl 3-methylbenzoate]	214 to 218 °C	
Cc1ccccc1C(=O)Oc1ccc2c(c1)S(=O)(=O)NC1CCCN21 (stereo not drawn) [Example 30, 5,5-Dioxo-2,3,3a,4-tetrahydro-1H-pyrrolo[2,1-c][1,2,4]-benzothiadiazin-7-yl 2-methylbenzoate]	218 to 221 °C	
N#Cc1cccc(C(=O)Oc2ccc3c(c2)S(=O)(=O)NC2CCCN32)c1 (stereo not drawn) [Example 31, 5,5-Dioxo-2,3,3a,4-tetrahydro-1H-pyrrolo[2,1-c][1,2,4]-benzothiadiazin-7-yl 3-cyanobenzoate]	203 to 206 °C	
O=C(Oc1ccc2c(c1)S(=O)(=O)NC1CCCN21)c1ccsc1 (stereo not drawn) [Example 33, 5,5-Dioxo-2,3,3a,4-tetrahydro-1H-pyrrolo[2,1-c][1,2,4]-benzothiadiazin-7-yl 3-thiophenecarboxylate]	208 to 212 °C	
O=C(Oc1ccc2c(c1)S(=O)(=O)NC1CCCN21)c1ccoc1 (stereo not drawn) [Example 35, 5,5-Dioxo-2,3,3a,4-tetrahydro-1H-pyrrolo[2,1-c][1,2,4]-benzothiadiazin-7-yl 3-furancarboxylate]	185 to 187 °C	
